Data from patent US12324893B2, “Triptan microporation delivery system” (PassPort Technologies, Inc., priority 2019, dated 2025).

How the values were obtained:
[1] = Administration route study in hairless rats (Example 4); assay type: in vivo; conditions: for AUC / Cmax / Tmax: rat, blood
Experimental: (§1) Hairless rats were used as experimental animals. After oral administration of a drug solution (2.0 ml) containing 2.0 mg of zolmitriptan, blood was collected at a desired time, each medicinal component was extracted according to a conventional method, then blood concentration was quantified by high performance liquid chromatography (LC-MS/MS).
as §1, with “intravenous” for “oral”, “(10 μl)” for “(2.0 ml)”, “2” for “2.0”
as §1, with “intravenous” for “oral”, “(200 μl)” for “(2.0 ml)”, “2” for “2.0”
Hairless rats were used as experimental animals. A drug patch was affixed on the flank side of skin of experimental animals that had undergone microporation treatment under the desired conditions. In this study, microporation condition of transdermal microporation was 400 pores/cm^2, 5.2 mJ/filament. The administration side was 1 cm^2. During the period where the patch was affixed, and after it had adhered, blood was collected at a desired time, each medicinal component was extracted according to a conventional method, then blood concentration was quantified by high performance liquid chromatography (LC-MS/MS). A Patch formulation of this study was 2 mg Zolmitriptan, sucrose 0.5 mg, AA 4 mg, 1 cm^2 non-woven matrix (EH-1212, WHC=4 mg/cm^2),
The given bioavailability of Table 5 is absolute bioavailability against IV injection.

[2] = Administration route study in guinea pigs (Example 5); assay type: in vivo; conditions: for AUC / Cmax / Tmax: guinea pig, blood
Experimental: This example describes an administration route study in guinea pigs using the same method mentioned in Example 4. In this study, base refers to Zomitriptan.
In this study, five groups of guinea pigs were tested under the following conditions: (1) Group 1 (10 mg base/4 ml, oral route); (2) Group 2 (5 mg base/2 ml, oral route); (3) Group 3 (2 mg base/4 mL, oral route); (4) Group 4 (2.0 mg base/cm^2, transdermal microporation); and (5) Group 5 (2 mg/200 μL, SubQ). The given bioavailability of Tables 6 is relative bioavailability against subcutaneous injection.

[3] = Pain by poration (Examples 7-9); assay type: in vivo, guinea pigs
Experimental: (§2) This example describes various effects of filament density. To investigate the effect of filament density on PK profile and side effects (pain by poration and skin irritation), these studies were conducted. The filament density mainly affects the area to be utilized for the transfer of body fluid and ingredients in between skin and patch. The range of filament density was 100 filaments/cm^2 to 400 filaments/cm^2, and the poration energy was from 3 to 4 mJ/filament.
(§3) This example describes various effects to heating energy. The poration energy is related to the pore shape such as depth and width.
(§4) This example describes the selection of a desirable filament array size. Assuming the higher dose than 2 mg dose with the conditions 400 filaments/cm^2 filament density and 4 or 5 mJ/filament energy, filament array size may need to be made bigger. The range of dose was 0.5 to 4 mg, and the range of filament array size was 1.0 to 2.0 cm^2.

skin = test: Skin irritation at different poration conditions (Examples 7-9); assay type: in vivo, guinea pigs
Experimental: A skin irritation examination was performed following the patch removal. The skin irritation examination scale was an assessment of the skin directly under the matrix.
as §2, §3, §4

[4] = Administration route study in hairless rats (Example 4); assay type: in vivo; conditions: Group 2: 2 mg zolmitriptan
[5] = Group 1: 2 mg zolmitriptan, oral administration
[6] = Group 3: 2 mg zolmitriptan, intravenous injection
[7] = topical or ocular, Group 4: 2 mg zolmitriptan, transdermal microporation (400 pores/cm^2, 5.2 mJ/filament, 1 cm^2)
[8] = Group 1: 10 mg base/4 ml, oral route
[9] = Group 2: 5 mg base/2 ml, oral route
[10] = Group 3: 2 mg base/4 mL, oral route
[11] = topical or ocular, Group 4: 2.0 mg base/cm^2, transdermal microporation
[12] = Table 17 #1: dose 0.50 mg, 4 mJ/filament, 1.0 cm^2, 400 filaments/cm^2
[13] = Table 17 # 2: dose 2.00 mg, 4 mJ/filament, 1.0 cm^2, 400 filaments/cm^2
[14] = Table 17 # 3: dose 3.00 mg, 4 mJ/filament, 1.0 cm^2, 400 filaments/cm^2
[15] = Table 17 # 4: dose 4.00 mg, 4 mJ/filament, 1.5 cm^2, 400 filaments/cm^2
[16] = Table 17 # 5: dose 4.00 mg, 4 mJ/filament, 2.0 cm^2, 400 filaments/cm^2
[17] = Table 17 # 6: dose 4.00 mg, 5 mJ/filament, 1.5 cm^2, 400 filaments/cm^2
[18] = Table 13 # 1: 100 filaments/cm^2, 3 mJ/filament, 1.0 cm^2, 2.00 mg patch
[19] = Table 13 # 2: 200 filaments/cm^2, 3 mJ/filament, 1.0 cm^2, 2.00 mg patch
[20] = Table 13 # 3: 400 filaments/cm^2, 3 mJ/filament, 1.0 cm^2, 2.00 mg patch
[21] = Table 13 # 4: 100 filaments/cm^2, 4 mJ/filament, 1.0 cm^2, 2.00 mg patch
[22] = Table 13 # 5: 200 filaments/cm^2, 4 mJ/filament, 1.0 cm^2, 2.00 mg patch
[23] = Table 13 # 6: 400 filaments/cm^2, 4 mJ/filament, 1.0 cm^2, 2.00 mg patch
[24] = Table 15 # 1: 400 filaments/cm^2, 2 mJ/filament, 1.0 cm^2, 2.00 mg patch
[25] = Table 15 # 2: 400 filaments/cm^2, 3 mJ/filament, 1.0 cm^2, 2.00 mg patch
[26] = Table 15 # 3: 400 filaments/cm^2, 4 mJ/filament, 1.0 cm^2, 2.00 mg patch
[27] = Table 15 # 4: 400 filaments/cm^2, 5 mJ/filament, 1.0 cm^2, 2.00 mg patch
[28] = rat, blood, inhaled or intranasal

## CN(C)CCc1c[nH]c2ccc(C[C@H]3COC(=O)N3)cc12 [Zolmitriptan]
[1]; Group 1: 2 mg zolmitriptan, oral administration, absolute bioavailability against IV injection
  BA: 11.4%
[1]; Group 3: 2 mg zolmitriptan, intravenous injection, absolute bioavailability against IV injection (reference)
  BA: 100.0%
[1]; Group 4: 2 mg zolmitriptan, transdermal microporation (400 pores/cm^2, 5.2 mJ/filament, 1 cm^2), absolute bioavailability against IV injection
  BA: 71.4%
[1]; [5]
  AUC: 227 ng·h/mL
  Cmax: 74 ng/mL
  Tmax: 270 min
[1]; [6]
  AUC: 2000 ng·h/mL
  Cmax: 5020 ng/mL
  Tmax: 3 min
[1]; [7]
  Cmax: 577 ng/mL
  Tmax: 37.8 min
[1]; topical or ocular, Group 4: 2 mg zolmitriptan, transdermal microporation (400 pores/cm^2, 5.2 mJ/filament, 1 cm^2; patch with sucrose 0.5 mg, AA 4 mg)
  AUC: 1430 ng·h/mL
[2]; Group 1: 10 mg base/4 ml, oral route, relative bioavailability against subcutaneous injection
  BA: 16.2%
[2]; Group 2: 5 mg base/2 ml, oral route, relative bioavailability against subcutaneous injection
  BA: 8.3%
[2]; Group 3: 2 mg base/4 mL, oral route, relative bioavailability against subcutaneous injection
  BA: 4.5%
[2]; Group 4: 2.0 mg base/cm^2, transdermal microporation, relative bioavailability against subcutaneous injection
  BA: 84.2%
[2]; Group 5: 2 mg/200 μL, SubQ, relative bioavailability against subcutaneous injection (reference)
  BA: 100.0%
[2]; [8]
  AUC: 1390 ng·h/mL
  Cmax: 910 ng/mL
  Tmax: 26.4 min
[2]; [9]
  AUC: 353 ng·h/mL
  Cmax: 259 ng/mL
  Tmax: 33.6 min
[2]; [10]
  AUC: 77 ng·h/mL
  Cmax: 25 ng/mL
  Tmax: 19.8 min
[2]; sc, Group 5: 2 mg/200 μL, SubQ
  AUC: 1710 ng·h/mL
  Cmax: 3880 ng/mL
  Tmax: 5.4 min
[2]; [11]
  Cmax: 864 ng/mL
  Tmax: 30 min
[2]; topical or ocular, Group 4: 2.0 mg base/cm^2, transdermal microporation (400 pores/cm^2, 5.2 mJ/filament)
  AUC: 1440 ng·h/mL
[3]; Table 13 # 1: 100 filaments/cm^2, 3 mJ/filament, area 1.0 cm^2
  Pain by poration ± SD: 0.0 ± 0.0
[3]; Table 13 # 2: 200 filaments/cm^2, 3 mJ/filament, area 1.0 cm^2
  Pain by poration ± SD: 0.6 ± 0.5
[3]; Table 13 # 3: 400 filaments/cm^2, 3 mJ/filament, area 1.0 cm^2
  Pain by poration ± SD: 0.5 ± 0.6
[3]; Table 13 # 4: 100 filaments/cm^2, 4 mJ/filament, area 1.0 cm^2
  Pain by poration ± SD: 0.8 ± 1.0
[3]; Table 13 # 5: 200 filaments/cm^2, 4 mJ/filament, area 1.0 cm^2
  Pain by poration ± SD: 1.8 ± 0.4
[3]; Table 13 # 6: 400 filaments/cm^2, 4 mJ/filament, area 1.0 cm^2
  Pain by poration ± SD: 1.8 ± 0.5
[3]; Table 15 # 1: 400 filaments/cm^2, 2 mJ/filament, area 1.0 cm^2
  Pain by poration ± SD: 0.3 ± 0.5
[3]; Table 15 # 2: 400 filaments/cm^2, 3 mJ/filament, area 1.0 cm^2
  Pain by poration ± SD: 0.5 ± 0.6
[3]; Table 15 # 3: 400 filaments/cm^2, 4 mJ/filament, area 1.0 cm^2
  Pain by poration ± SD: 1.8 ± 0.5
[3]; Table 15 # 4: 400 filaments/cm^2, 5 mJ/filament, area 1.0 cm^2
  Pain by poration ± SD: 0.8 ± 1.0
[3]; [12]
  Pain by poration ± SD: 0.5 ± 0.6
[3]; [13]
  Pain by poration ± SD: 1.8 ± 0.5
[3]; [14]
  Pain by poration ± SD: 0.3 ± 0.5
[3]; [15]
  Pain by poration ± SD: 2.3 ± 0.5
[3]; [16]
  Pain by poration ± SD: 2.8 ± 0.5
[3]; [17]
  Pain by poration ± SD: 2.8 ± 0.5
skin; [18]
  Skin irritation relief ± SD (Days to recover to score 1): 0.0 ± 0.0 days
  Skin irritation ± SD (Just after patch removal): 0.8 ± 0.3
skin; [19]
  Skin irritation relief ± SD (Days to recover to score 1): 1.8 ± 0.8 days
  Skin irritation ± SD (Just after patch removal): 2.2 ± 0.4
skin; [20]
  Skin irritation relief ± SD (Days to recover to score 1): 2.8 ± 1.3 days
  Skin irritation ± SD (Just after patch removal): 1.9 ± 0.3
skin; [21]
  Skin irritation relief ± SD (Days to recover to score 1): 1.8 ± 0.5 days
  Skin irritation ± SD (Just after patch removal): 1.6 ± 0.3
skin; [22]
  Skin irritation relief ± SD (Days to recover to score 1): 3.0 ± 1.9 days
  Skin irritation ± SD (Just after patch removal): 2.1 ± 0.7
skin; [23]
  Skin irritation relief ± SD (Days to recover to score 1): 3.2 ± 0.8 days
  Skin irritation ± SD (Just after patch removal): 2.1 ± 0.3
skin; [24]
  Skin irritation relief ± SD (Days to recover to score 1): 2.3 ± 1.2 days
  Skin irritation ± SD (Just after patch removal): 1.8 ± 0.3
skin; [25]
  Skin irritation relief ± SD (Days to recover to score 1): 2.8 ± 1.3 days
  Skin irritation ± SD (Just after patch removal): 1.9 ± 0.3
skin; [26]
  Skin irritation relief ± SD (Days to recover to score 1): 3.2 ± 0.8 days
  Skin irritation ± SD (Just after patch removal): 2.1 ± 0.3
skin; [27]
  Skin irritation relief ± SD (Days to recover to score 1): 2.6 ± 1.7 days
  Skin irritation ± SD (Just after patch removal): 2.3 ± 0.3
skin; [12]
  Skin irritation relief ± SD (Days to recover to score 1): 2.5 ± 1.0 days
  Skin irritation ± SD (Just after patch removal): 1.6 ± 0.5
skin; [13]
  Skin irritation relief ± SD (Days to recover to score 1): 3.2 ± 0.8 days
  Skin irritation ± SD (Just after patch removal): 2.1 ± 0.3
skin; [14]
  Skin irritation relief ± SD (Days to recover to score 1): 3.0 ± 0.5 days
  Skin irritation ± SD (Just after patch removal): 2.0 ± 0.0
skin; [15]
  Skin irritation ± SD (Just after patch removal): 2.1 ± 0.3
skin; [16]
  Skin irritation relief ± SD (Days to recover to score 1): 4.3 ± 0.9 days
  Skin irritation ± SD (Just after patch removal): 2.0 ± 0.0
skin; [17]
  Skin irritation relief ± SD (Days to recover to score 1): 5.5 ± 1.9 days
  Skin irritation ± SD (Just after patch removal): 1.9 ± 0.3
[4]; intranasal administration, absolute bioavailability against IV injection
  BA: 12.0%
[4]; [28]
  AUC: 239 ng·h/mL
  Cmax: 127 ng/mL
  Tmax: 135 min
